Tests used:
Format in all cases: in vivo
Set-up in all cases: key: 0 is no effect; 10 is complete control
[1] = tested on: pigweed (Amaranthus retroflexus); assay: Test B pre-/postemergence; settings: for Plant response rating, Redroot pigweed: Preemergence; for Redroot pigweed plant response rating: Postemergence
In short: (§1)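 Scored visually 0 (none) to 10 (complete control) against untreated plants after twelve to sixteen greenhouse days. Test chemicals, formulated in surfactant-containing non-phytotoxic solvent, applied to soil after planting and, separately, onto 1- to 4-leaf (2–18 cm) plants.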

[2] = tested on: velvetleaf (Abutilon theophrasti); assay: Test B pre-/postemergence; settings: for Velvetleaf plant response rating: Postemergence
In short: as §1

[3] = tested on: wheat (Triticum aestivum); assay: Test B pre-/postemergence; settings: for Plant response rating, Wheat: Preemergence; for Wheat plant response rating: Postemergence
In short: as §1

[4] = tested on: giant foxtail (Setaria faberii); assay: Test B pre-/postemergence; settings: for Plant response rating, Giant foxtail: Preemergence; for Giant foxtail plant response rating: Postemergence
In short: as §1

[5] = tested on: momingglory (Ipomoea hederacea); assay: Test B pre-/postemergence; settings: for Plant response rating, Morningglory: Preemergence; for Morningglory plant response rating: Postemergence
In short: as §1

[6] = tested on: soybean (Glycine max); assay: Test B pre-/postemergence; settings: for Plant response rating, Soybean: Preemergence; for Soybean plant response rating: Postemergence
In short: as §1

[7] = tested on: bedstraw (Galium aparine); assay: Test B pre-/postemergence; settings: for Plant response rating, Bedstraw: Preemergence; for Bedstraw plant response rating: Postemergence
In short: as §1

[8] = tested on: corn (Zea mays); assay: Test B pre-/postemergence; settings: for Plant response rating, Corn: Preemergence; for Corn plant response rating: Postemergence
In short: as §1

[9] = tested on: crabgrass (Digitaria sanguinalis); assay: Test B pre-/postemergence; settings: for Plant response rating, Crabgrass: Preemergence; for Crabgrass plant response rating: Postemergence
In short: as §1

[10] = tested on: wild oat (Avena fatua); assay: Test B pre-/postemergence; settings: for Plant response rating, Wild oats: Preemergence; for Wild oats plant response rating: Postemergence
In short: as §1

[11] = tested on: cocklebur (Xanthium strumarium); assay: Test B pre-/postemergence; settings: for Plant response rating, Cocklebur: Preemergence; for Cocklebur plant response rating: Postemergence
In short: as §1

[12] = tested on: sugar beet (Beta vulgaris); assay: Test B pre-/postemergence; settings: for Plant response rating, Sugarbeets: Preemergence; for Sugarbeets plant response rating: Postemergence
In short: as §1

[13] = tested on: purple nutsedge (Cyperus rotundus); assay: Test B pre-/postemergence; settings: for Plant response rating, Nutsedge: Preemergence
In short: as §1

[14] = tested on: broadleaf signalgrass (Brachiaria decumbens); assay: Test B pre-/postemergence
In short: as §1

[15] = tested on: blackgrass (Alopecurus myosuroides); assay: Test B pre-/postemergence; settings: for Plant response rating, Blackgrass: Preemergence; for Blackgrass plant response rating: Postemergence
In short: as §1

[16] = tested on: rape (Brassica napus); assay: Test B pre-/postemergence; settings: for Plant response rating, Rape: Preemergence; for Rape plant response rating: Postemergence
In short: as §1

[17] = tested on: bamyardgrass (Echinochloa crus-galli); assay: Test B flood test
In short: (§2)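 Flood test on plants grown to the 2-leaf stage; treated plants kept in greenhouse twelve to sixteen days, then visually rated against controls on a 0 (no effect) to 10 (complete control) scale.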

[18] = tested on: rice (Oryza sativa); assay: Test B flood test
In short: as §2

[19] = tested on: duck salad (Heteranthera limosa); assay: Test B flood test
In short: as §2

[20] = tested on: smallflower flatsedge (Cyperus difformis); assay: Test B flood test
In short: as §2

[21] = Rate 62 g/ha, Postemergence (flood test)
[22] = Rate 125 g/ha, Postemergence section (flood test species)

CCc1cnc(-n2ccc(C(F)(F)F)n2)nc1C(=O)c1cccc(C(F)(F)F)c1 [Compound 69]
Plant response rating, Redroot pigweed ([1]; Rate 62 g/ha, scale of 0 to 10): 8 | Redroot pigweed plant response rating ([1]; Rate 62 g/ha): 10 | Redroot pigweed plant response rating ([1]; Rate 125 g/ha): 10 | Plant response rating, Redroot pigweed ([1]; Rate 125 g/ha): 10 | Velvetleaf plant response rating ([2]; Rate 62 g/ha): 8 | Velvetleaf plant response rating ([2]; Rate 125 g/ha): 8 | Plant response rating, Velvetleaf ([2]; Rate 125 g/ha, Preemergence): 8 | Plant response rating, Wheat ([3]; Rate 62 g/ha, scale of 0 to 10): 1 | Wheat plant response rating ([3]; Rate 62 g/ha): 3 | Wheat plant response rating ([3]; Rate 125 g/ha): 4 | Plant response rating, Wheat ([3]; Rate 125 g/ha): 1 | Plant response rating, Giant foxtail ([4]; Rate 62 g/ha, scale of 0 to 10): 4 | Giant foxtail plant response rating ([4]; Rate 62 g/ha): 2 | Giant foxtail plant response rating ([4]; Rate 125 g/ha): 3 | Plant response rating, Giant foxtail ([4]; Rate 125 g/ha): 8 | Plant response rating, Morningglory ([5]; Rate 62 g/ha, scale of 0 to 10): 8 | Morningglory plant response rating ([5]; Rate 62 g/ha): 9 | Morningglory plant response rating ([5]; Rate 125 g/ha): 10 | Plant response rating, Morningglory ([5]; Rate 125 g/ha): 8 | Plant response rating, Soybean ([6]; Rate 62 g/ha, scale of 0 to 10): 0 | Soybean plant response rating ([6]; Rate 62 g/ha): 4 | Soybean plant response rating ([6]; Rate 125 g/ha): 4 | Plant response rating, Soybean ([6]; Rate 125 g/ha): 1 | Plant response rating, Bedstraw ([7]; Rate 62 g/ha, scale of 0 to 10): 7 | Bedstraw plant response rating ([7]; Rate 62 g/ha): 9 | Bedstraw plant response rating ([7]; Rate 125 g/ha): 9 | Plant response rating, Bedstraw ([7]; Rate 125 g/ha): 9 | Plant response rating, Corn ([8]; Rate 62 g/ha, scale of 0 to 10): 0 | Corn plant response rating ([8]; Rate 62 g/ha): 2 | Corn plant response rating ([8]; Rate 125 g/ha): 2 | Plant response rating, Corn ([8]; Rate 125 g/ha): 0 | Plant response rating, Crabgrass ([9]; Rate 62 g/ha, scale of 0 to 10): 6 | Crabgrass plant response rating ([9]; Rate 62 g/ha): 3 | Crabgrass plant response rating ([9]; Rate 125 g/ha): 4 | Plant response rating, Crabgrass ([9]; Rate 125 g/ha): 9 | Plant response rating, Wild oats ([10]; Rate 62 g/ha, scale of 0 to 10): 4 | Wild oats plant response rating ([10]; Rate 62 g/ha): 3 | Wild oats plant response rating ([10]; Rate 125 g/ha): 3 | Plant response rating, Wild oats ([10]; Rate 125 g/ha): 7 | Plant response rating, Cocklebur ([11]; Rate 62 g/ha, scale of 0 to 10): 0 | Cocklebur plant response rating ([11]; Rate 62 g/ha): 8 | Cocklebur plant response rating ([11]; Rate 125 g/ha): 8 | Plant response rating, Cocklebur ([11]; Rate 125 g/ha): 2 | Plant response rating, Sugarbeets ([12]; Rate 62 g/ha, scale of 0 to 10): 9 | Sugarbeets plant response rating ([12]; Rate 62 g/ha): 10 | Sugarbeets plant response rating ([12]; Rate 125 g/ha): 10 | Plant response rating, Sugarbeets ([12]; Rate 125 g/ha): 9 | Plant response rating, Nutsedge ([13]; Rate 62 g/ha, scale of 0 to 10): 0 | Nutsedge plant response rating ([13]; Rate 62 g/ha, Postemergence): 2 | Plant response rating, Nutsedge ([13]; Rate 125 g/ha): 0 | B. signalgrass plant response rating ([14]; Rate 62 g/ha, Postemergence): 3 | B. signalgrass plant response rating ([14]; Rate 62 g/ha, Preemergence): 8 | B. signalgrass plant response rating ([14]; Rate 125 g/ha, Postemergence): 3 | Plant response rating, B. signalgrass ([14]; Rate 125 g/ha, Preemergence): 9 | Plant response rating, Blackgrass ([15]; Rate 62 g/ha, scale of 0 to 10): 1 | Blackgrass plant response rating ([15]; Rate 62 g/ha): 2 | Blackgrass plant response rating ([15]; Rate 125 g/ha): 3 | Plant response rating, Blackgrass ([15]; Rate 125 g/ha): 4 | Plant response rating, Rape ([16]; Rate 62 g/ha, scale of 0 to 10): 7 | Rape plant response rating ([16]; Rate 62 g/ha): 6 | Rape plant response rating ([16]; Rate 125 g/ha): 8 | Plant response rating, Rape ([16]; Rate 125 g/ha): 8 | Barnyardgrass plant response rating [17, 21]: 1 | Barnyardgrass plant response rating [17, 22]: 2 | Rice plant response rating [18, 21]: 0 | Rice plant response rating [18, 22]: 2 | Ducksalad plant response rating [19, 21]: 0 | Ducksalad plant response rating [19, 22]: 1 | S. Flatsedge plant response rating [20, 21]: 2 | S. Flatsedge plant response rating [20, 22]: 4
